Reference: the supplement of paper PMC10920090

Key:
[1] = test system: MDA-MB-231; experiment: drug sensitivity score (DSS), cytotoxicity CellTox Green; higher = more cytotoxic; extreme values may be limits of the assay; conditions: 72 h
[2] = test system: MDA-MB-231; experiment: drug sensitivity score (DSS), cell viability CellTiter-Glo; higher = more sensitive; extreme values may be limits of the assay; conditions: 72 h
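Wherever drug sensitivity score (DSS), cytotoxicity CellTox Green is given: DSS summarises each dose–response curve by combining IC50, EC50, maximal inhibition and efficacy across drug concentrations.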

Row | Structure (SMILES) | drug sensitivity score ([1]; shRNA: shPPFIA1_1) [DSS] | drug sensitivity score ([1]; shRNA: shScramble) [DSS] | drug sensitivity score ([2]; shRNA: shPPFIA1_1) [DSS] | drug sensitivity score ([2]; shRNA: shScramble) [DSS]
1 | CCc1c2c(nc3ccc(OC(=O)N4CCC(N5CCCCC5)CC4)cc13)-c1cc3c(c(=O)n1C2)COC(=O)[C@]3(O)CC [Irinotecan] | 0 | 0 | 0 | 0.3
2 | CCC(C)n1ncn(-c2ccc(N3CCN(c4ccc(OCC5COC(Cn6cncn6)(c6ccc(Cl)cc6Cl)O5)cc4)CC3)cc2)c1=O (centres undefined) [Itraconazole] | 0 | 0 | 4.8 | 5.6
3 | C/C(=C\c1csc(C)n1)[C@@H]1C[C@@H]2O[C@]2(C)CCC[C@H](C)[C@H](O)[C@@H](C)C(=O)C(C)(C)[C@@H](O)CC(=O)N1 [Ixabepilone] | 3.8 | 3.1 | 0 | 5
4 | CCCNC(=O)Nc1ccc(Oc2ncnc3cc(OC)c(OC)cc23)cc1Cl [KRN-633] | 0 | 0 | 0 | 0.9
5 | O=C(c1ccc(/C=C/c2n[nH]c3ccccc23)cc1)N1CCNCC1 [KW-2449] | 0 | 0 | 0 | 0
6 | O=C(Cc1ccc(-c2ccc(OCCN3CCOCC3)cc2)cn1)NCc1ccccc1 [KX2-391] | 5.5 | 1.8 | 2.1 | 8.2
7 | CN[C@@H](C)C(=O)N[C@H](C(=O)N1CCC[C@H]1c1nc(C(=O)c2ccc(F)cc2)cs1)C1CCCCC1 [LCL161] | 40.9 | 24.4 | 20.5 | 2.5
8 | CS(=O)(=O)CCNCc1ccc(-c2ccc3ncnc(Nc4ccc(OCc5cccc(F)c5)c(Cl)c4)c3c2)o1 [Lapatinib] | 0 | 0 | 0 | 0
9 | Oc1ccc2c(c1)CC[C@H](c1ccccc1)[C@@H]2c1ccc(OCCN2CCCC2)cc1 [Lasofoxifene] | 0 | 0 | 0 | 0.4
10 | Nc1cccc2c1CN(C1CCC(=O)NC1=O)C2=O (centres undefined) [Lenalidomide] | 0 | 0 | 0 | 0
11 | COc1cc2nccc(Oc3ccc(NC(=O)NC4CC4)c(Cl)c3)c2cc1C(N)=O [Lenvatinib] | 0 | 0 | 0 | 0
12 | C[C@]12O[C@H](C[C@]1(O)CO)n1c3ccccc3c3c4c(c5c6ccccc6n2c5c31)CNC4=O [Lestaurtinib] | 0 | 0 | 1.1 | 4.9
13 | N#Cc1ccc(C(c2ccc(C#N)cc2)n2cncn2)cc1 [Letrozole] | 0 | 0 | 0 | 0
14 | c1ccc([C@H]2CN3CCSC3=N2)cc1 [Levamisole] | 0 | 0 | 0 | 0
15 | Cc1ccc(F)c(NC(=O)Nc2ccc(-c3cccc4[nH]nc(N)c34)cc2)c1 [Linifanib] | 0 | 0 | 0 | 0
16 | C[C@]1(O)C[C@@H](c2nc(-c3ccc4ccc(-c5ccccc5)nc4c3)c3c(N)nccn32)C1 [Linsitinib] | 0 | 0 | 0 | 0
17 | Nc1nc(OCc2cc(Br)cs2)c2[nH]cnc2n1 [Lomeguatrib] | 0 | 0 | 0.1 | 0
18 | O=NN(CCCl)C(=O)NC1CCCCC1 [Lomustine] | 0 | 0 | 0 | 0
19 | NC(=O)N1CCC(CC(=O)N2CCC([C@H]3c4ncc(Br)cc4CCc4cc(Cl)cc(Br)c43)CC2)CC1 [Lonafarnib] | 0 | 0 | 2.4 | 3.1
20 | Cc1c(F)cc(C(=O)NC2CC2)cc1-c1ccc(C(=O)NCC(C)(C)C)cn1 [Losmapimod] | 0 | 0 | 1.7 | 0
21 | CC[C@H](C)C(=O)O[C@H]1C[C@@H](C)C=C2C=C[C@H](C)[C@H](CC[C@@H]3C[C@@H](O)CC(=O)O3)[C@H]21 [Lovastatin] | 0 | 0 | 0 | 0
22 | CNC(=O)c1cccc2cc(Oc3ccnc4cc(OCC5(N)CC5)c(OC)cc34)ccc12 [Lucitanib] | 0.3 | 1.2 | 0 | 0.7
23 | CCNC(=O)c1noc(-c2cc(C(C)C)c(O)cc2O)c1-c1ccc(CN2CCOCC2)cc1 [Luminespib] | 0 | 2 | 9.5 | 12.2
24 | C=CCn1c(=O)c2cnc(Nc3ccc(N4CCN(C)CC4)cc3)nc2n1-c1cccc(C(C)(C)O)n1 [MK1775] | 9.4 | 7.6 | 5.1 | 7.5
25 | O=C(O)CC[C@H]1CC[C@@](c2cc(F)ccc2F)(S(=O)(=O)c2ccc(Cl)cc2)CC1 [MK-0752] | 0 | 0 | 0 | 0.2
26 | NC1(c2ccc(-c3nc4ccn5c(=O)[nH]nc5c4cc3-c3ccccc3)cc2)CCC1 [MK-2206] | 0 | 0 | 6.5 | 6.8
